These results are taken from PubChem BioAssay AID651717 (Broad Institute, 2012).

Molecules are shown by their SMILES.

The test system of this test is mESC Bmi1-luciferase reporter, firefly/renilla ratio, 24 h. Kind of test: compounds raising Bmi1 reporter signal – mouse embryonic stem cells, luciferase, cherry-pick, esBAF inhibitor project, dose response (AID 651717).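 Also: luciferase knocked into Bmi1 locus with EF-1a renilla as cell number control; rising ratio signals esBAF inhibition which derepresses Bmi1.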
For the molecule `COC(=O)Cc1csc(Nc2ccccc2Cl)n1`, the AC40 was 6.92 µM. The value for `O=C(NCCCc1ccccc1)c1ccccc1O` was 10.7 µM.

Regarding `COc1ccc(NC(=O)c2cc(C3CC3)on2)c(OC)c1`, the AC40 was 11.8 µM. The value for `COC(=O)N1CCCC(c2cc(C(=O)Nc3ccccc3Cl)no2)C1` (centres undefined) was 3.3 µM; that for `CCn1c(O)c(/C=C2\C=Nc3ccccc32)sc1=Nc1ccccc1` was 14.2 µM; that for `O=C(Cc1cccs1)Nc1nc2c(s1)CCCC2` was 1.66 µM. As for `Cc1ccc(NC(=O)O/N=C/c2ccc(F)cc2)cc1`, the figure is 8.83 µM; as for `Cc1cc(F)ccc1-c1cc(C(=O)Nc2ccc(F)cc2)[nH]n1`, 0.757 µM. As for `O=C(c1c(Cl)nc2sccn12)N(C(=O)c1c(Cl)nc2sccn12)c1ccc(Cl)cn1`, the AC40 was 0.693 µM. The value for `Cc1c(Cl)cccc1NC(=O)c1cc(C2CC2)on1` was 1.81 µM; that for `CN(C)c1ccc(C=NN2CCCCCC2)cc1` was less than 0.26 µM. The value for `c1ccc(Cn2cnc3ccccc32)cc1` was 0.984 µM; that for `COc1ccc2c(=O)c3ccccc3oc2c1` was 4.7 µM; that for `COc1ccc(CN(C(=O)CSc2nnc(-c3c[nH]c4ccccc34)o2)c2ccc(F)cc2)cc1OC` was 7.04 µM.

On to `Cc1cc(NC(=O)Nc2ccc3c(ccn3C)c2)sn1`, for which the AC40 is 5.14 µM. Regarding `FC(F)(F)c1ccccc1Cc1c(-c2cccc(Br)c2)nc2c3ccccc3ccn12`, the AC40 was 9.57 µM. As for `c1ccc(Nc2nc(-c3ccncc3)cs2)cc1`, the figure is 2.71 µM; as for `CS(=O)(=O)c1ccccc1C(=O)Nc1ccc(-c2nc3ccccc3o2)cc1`, 4.29 µM; as for `CC(=Nc1ccccc1O)c1sc2ccccc2c1O`, 3.82 µM. As for `Clc1cccc(Cl)c1Cn1nnc(-c2cccs2)n1`, the AC40 is 3.31 µM. As for `O=C(Nc1ccc2ccccc2c1)c1cccc2ccccc12`, the figure is 0.829 µM. The value for `COc1cccc(N2CCN(C(=O)c3ccc4nc(N5CCCCC5)sc4c3)CC2)c1` was 5.88 µM; that for `COc1cc2ccccc2cc1C(=O)Nc1ccccc1C` was 1.85 µM; that for `CC(C)C(=O)N1CCN(c2nc3ccc(Cl)cc3s2)CC1` was 3.33 µM.

Regarding `COC(=O)c1ccc2[nH]c(C(C)(C)O)c(C)c2c1`, the AC40 was 1.37 µM.

In the case of `O=C1CCCc2c1sc1nc3n(c(=O)c21)CCCCC3`, the AC40 is 4.12 µM. The value for `O=C(Nc1ccc(N2CCCC2)cc1)c1cccc(Cl)c1Cl` was 28.2 µM; that for `c1ccc(-c2csc(Nc3cccnc3)n2)nc1` was 4.74 µM; that for `COc1cccc(-c2cc(C(=O)NC3CCCCC3)no2)c1` was 1.71 µM. For `Clc1ccc(N/N=C/c2cccnc2)cc1`, the AC40 is 2.59 µM. The value for `COc1cccc(CN(C)C(=O)c2ccc(COc3ccc(Cl)cc3)cc2)c1OC` was 5.66 µM; that for `CCc1c(C(=O)OCc2ccccc2)[nH]c(C)c1C` was 2.03 µM; that for `CSc1ccc(CNc2ccc(C)c(C)c2)cc1` was 2.83 µM.

`O=C(O)c1ccc2noc(-c3ccccc3)c2c1`: the AC40 was 1.54 µM. Turning to `CCC(C)c1ccc(NC(=O)C2CC2)cc1` (centres undefined), the AC40 was 5.85 µM. As for `COc1cc2c(cc1OC)C(=Cc1ccc(N(C)C)cc1)C=C2`, the figure is 2.44 µM; as for `O=C(Nc1cccc(F)c1)c1c(O)c2ccccc2[nH]c1=O`, 1.29 µM. Consider `CN(C)S(=O)(=O)c1cccc(C(=O)Nc2ccc(Cl)cn2)c1`, for which the AC40 is 5.04 µM. As for `COc1nc(Nc2ccc(C(C)C)cc2)nc(OC)n1`, the figure is 10.8 µM. `COc1cc2[nH]c(C(=O)N3CCc4ccccc43)cc2c(OC)c1OC`: the AC40 is 2.77 µM.

Consider `COc1cccc(Nc2nc(-c3sc(C)nc3C)cs2)c1`, for which the AC40 was 8.61 µM. The value for `C=CCn1c(=O)c(C(=O)Nc2ccc(C)cc2)c(O)c2ccccc21` was 13.1 µM; that for `Cc1ccc(O)c(NC(=O)c2ccc3c(c2)C(=O)N(CC(C)C)C3=O)c1` was 1.23 µM. In the case of `Cc1ccc2c(COC(=O)C34CC5CC(CC(C5)C3)C4)cc(=O)oc2c1`, the AC40 was 3.95 µM.
